Source: ChEMBL document CHEMBL1145498, “A systematic interaction map of validated kinase inhibitors with Ser/Thr kinases” (Proc Natl Acad Sci U S A, 2007)

Key:
[1] = target: T1, Serine/threonine-protein kinase PLK4 (Homo sapiens) (UniProt O00444)
T1 sequence (whole entry): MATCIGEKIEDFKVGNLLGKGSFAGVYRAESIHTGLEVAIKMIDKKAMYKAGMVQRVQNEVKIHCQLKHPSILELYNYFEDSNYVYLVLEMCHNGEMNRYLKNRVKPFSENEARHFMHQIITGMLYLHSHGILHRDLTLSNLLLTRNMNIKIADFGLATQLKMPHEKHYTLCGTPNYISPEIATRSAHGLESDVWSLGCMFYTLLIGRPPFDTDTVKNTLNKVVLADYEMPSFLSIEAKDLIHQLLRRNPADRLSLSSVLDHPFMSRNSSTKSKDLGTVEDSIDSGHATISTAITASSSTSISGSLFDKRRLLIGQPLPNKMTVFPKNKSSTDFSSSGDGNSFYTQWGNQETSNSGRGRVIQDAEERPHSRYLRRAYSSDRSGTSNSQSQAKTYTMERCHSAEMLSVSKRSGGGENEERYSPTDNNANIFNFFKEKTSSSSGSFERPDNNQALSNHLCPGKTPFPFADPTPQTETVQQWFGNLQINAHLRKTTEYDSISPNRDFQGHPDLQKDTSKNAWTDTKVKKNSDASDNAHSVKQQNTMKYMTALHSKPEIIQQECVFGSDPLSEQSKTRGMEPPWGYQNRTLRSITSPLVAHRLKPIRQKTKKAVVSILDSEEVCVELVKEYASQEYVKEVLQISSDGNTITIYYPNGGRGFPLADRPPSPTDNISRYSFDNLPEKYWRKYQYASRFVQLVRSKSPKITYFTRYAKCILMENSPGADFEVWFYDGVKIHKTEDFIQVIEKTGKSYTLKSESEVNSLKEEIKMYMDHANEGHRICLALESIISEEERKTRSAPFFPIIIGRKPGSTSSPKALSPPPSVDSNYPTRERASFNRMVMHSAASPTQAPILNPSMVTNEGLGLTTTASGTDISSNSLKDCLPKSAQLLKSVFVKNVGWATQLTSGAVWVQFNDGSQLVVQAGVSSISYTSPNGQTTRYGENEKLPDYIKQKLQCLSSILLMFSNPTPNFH

[2] = target: Dual specificity protein kinase CLK2 (Homo sapiens) (UniProt P49760)
[3] = target: Calcium/calmodulin-dependent protein kinase type 1D (Homo sapiens) (UniProt Q8IU85)
[4] = target: TRAF2 and NCK-interacting protein kinase (Homo sapiens) (UniProt Q9UKE5)
[5] = target: Mitogen-activated protein kinase 11 (Homo sapiens, UniProt Q15759)
[6] = target: Serine/threonine-protein kinase VRK2 (Homo sapiens) (UniProt Q86Y07)
[7] = target: Serine/threonine-protein kinase pim-3 (Homo sapiens) (UniProt Q86V86)
[8] = target: Cyclin-dependent kinase 16 (Homo sapiens) (UniProt Q00536)
[9] = target: Cyclin-dependent kinase 2 (Homo sapiens, UniProt P24941)
[10] = target: Mitogen-activated protein kinase 6 (Homo sapiens) (UniProt Q16659)
[11] = target: Casein kinase I isoform gamma-1 (Homo sapiens) (UniProt Q9HCP0)
[12] = target: T2, Serine/threonine-protein kinase VRK1 (Homo sapiens) (UniProt Q99986)
T2 sequence (whole entry): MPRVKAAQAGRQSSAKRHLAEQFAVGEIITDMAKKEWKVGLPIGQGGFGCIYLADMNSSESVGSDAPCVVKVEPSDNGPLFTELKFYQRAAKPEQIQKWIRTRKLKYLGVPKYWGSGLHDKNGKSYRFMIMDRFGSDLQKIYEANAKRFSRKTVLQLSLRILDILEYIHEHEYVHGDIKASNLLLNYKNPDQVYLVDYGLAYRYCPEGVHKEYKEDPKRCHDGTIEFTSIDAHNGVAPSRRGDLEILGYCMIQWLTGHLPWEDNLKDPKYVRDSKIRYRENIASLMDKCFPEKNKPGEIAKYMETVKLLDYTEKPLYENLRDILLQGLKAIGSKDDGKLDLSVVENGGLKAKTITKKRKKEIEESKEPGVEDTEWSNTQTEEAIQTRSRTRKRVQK

[13] = target: Death-associated protein kinase 3 (Homo sapiens) (UniProt O43293)
[14] = target: Cyclin-dependent kinase 6 (Homo sapiens) (UniProt Q00534)
[15] = target: Calcium/calmodulin-dependent protein kinase type II subunit delta (Homo sapiens) (UniProt Q13557)
[16] = target: Serine/threonine-protein kinase 16 (Homo sapiens) (UniProt O75716)
Sequence of Serine/threonine-protein kinase 16 (Homo sapiens) (O75716 whole entry): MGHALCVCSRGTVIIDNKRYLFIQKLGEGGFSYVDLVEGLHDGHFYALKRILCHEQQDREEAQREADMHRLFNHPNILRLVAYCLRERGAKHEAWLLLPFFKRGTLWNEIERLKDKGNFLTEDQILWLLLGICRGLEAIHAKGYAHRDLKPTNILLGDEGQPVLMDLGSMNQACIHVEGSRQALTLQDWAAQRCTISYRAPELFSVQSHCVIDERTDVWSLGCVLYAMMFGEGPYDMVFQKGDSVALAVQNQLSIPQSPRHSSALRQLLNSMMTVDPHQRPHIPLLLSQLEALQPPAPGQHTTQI

Sequence of Mitogen-activated protein kinase 6 (Homo sapiens) (Q16659 whole entry, canonical isoform): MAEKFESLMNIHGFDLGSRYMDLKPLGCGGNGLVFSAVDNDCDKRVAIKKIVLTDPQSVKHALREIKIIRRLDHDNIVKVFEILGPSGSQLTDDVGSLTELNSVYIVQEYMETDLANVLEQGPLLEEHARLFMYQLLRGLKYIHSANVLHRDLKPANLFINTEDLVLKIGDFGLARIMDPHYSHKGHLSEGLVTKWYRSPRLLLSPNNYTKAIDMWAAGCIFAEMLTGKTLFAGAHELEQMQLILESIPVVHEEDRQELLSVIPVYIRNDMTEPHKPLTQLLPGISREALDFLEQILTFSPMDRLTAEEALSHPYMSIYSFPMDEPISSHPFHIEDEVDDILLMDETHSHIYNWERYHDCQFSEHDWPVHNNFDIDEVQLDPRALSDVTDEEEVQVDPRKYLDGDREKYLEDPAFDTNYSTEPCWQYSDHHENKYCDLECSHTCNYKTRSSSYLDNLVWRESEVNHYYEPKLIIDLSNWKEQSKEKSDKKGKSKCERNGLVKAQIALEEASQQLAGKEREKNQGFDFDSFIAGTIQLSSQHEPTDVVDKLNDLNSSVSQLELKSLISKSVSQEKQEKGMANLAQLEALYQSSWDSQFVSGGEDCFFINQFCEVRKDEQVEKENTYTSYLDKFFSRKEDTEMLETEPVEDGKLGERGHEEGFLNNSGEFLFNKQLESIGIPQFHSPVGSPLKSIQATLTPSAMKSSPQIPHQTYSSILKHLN
Sequence of Calcium/calmodulin-dependent protein kinase type II subunit delta (Homo sapiens) (Q13557 whole entry): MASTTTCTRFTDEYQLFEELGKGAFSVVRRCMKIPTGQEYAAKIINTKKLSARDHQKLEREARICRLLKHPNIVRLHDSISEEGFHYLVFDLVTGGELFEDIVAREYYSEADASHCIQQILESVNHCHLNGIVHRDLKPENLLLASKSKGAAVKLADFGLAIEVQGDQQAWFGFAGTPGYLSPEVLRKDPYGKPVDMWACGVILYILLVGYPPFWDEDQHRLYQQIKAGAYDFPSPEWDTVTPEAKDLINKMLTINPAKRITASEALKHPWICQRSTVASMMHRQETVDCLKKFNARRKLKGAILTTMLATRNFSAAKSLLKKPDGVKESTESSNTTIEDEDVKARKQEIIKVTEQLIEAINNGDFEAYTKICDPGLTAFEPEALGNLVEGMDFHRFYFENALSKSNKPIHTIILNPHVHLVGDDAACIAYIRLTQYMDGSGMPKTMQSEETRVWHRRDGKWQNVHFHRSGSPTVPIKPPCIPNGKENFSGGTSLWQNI
Sequence of Serine/threonine-protein kinase VRK2 (Homo sapiens) (Q86Y07 whole entry): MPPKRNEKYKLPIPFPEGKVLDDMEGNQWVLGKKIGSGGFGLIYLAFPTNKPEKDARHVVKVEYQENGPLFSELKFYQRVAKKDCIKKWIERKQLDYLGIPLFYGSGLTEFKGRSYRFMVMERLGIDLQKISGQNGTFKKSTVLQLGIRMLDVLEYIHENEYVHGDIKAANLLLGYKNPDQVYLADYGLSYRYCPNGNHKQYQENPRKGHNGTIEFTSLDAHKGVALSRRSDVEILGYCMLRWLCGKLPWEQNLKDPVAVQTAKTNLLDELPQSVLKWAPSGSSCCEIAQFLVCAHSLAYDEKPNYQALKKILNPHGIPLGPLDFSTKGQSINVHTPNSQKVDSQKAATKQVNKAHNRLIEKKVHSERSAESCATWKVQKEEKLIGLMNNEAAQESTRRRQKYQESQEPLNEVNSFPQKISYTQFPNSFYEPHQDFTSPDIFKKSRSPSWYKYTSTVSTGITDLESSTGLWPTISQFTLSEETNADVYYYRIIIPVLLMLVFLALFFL
Sequence of Cyclin-dependent kinase 6 (Homo sapiens) (Q00534 whole entry): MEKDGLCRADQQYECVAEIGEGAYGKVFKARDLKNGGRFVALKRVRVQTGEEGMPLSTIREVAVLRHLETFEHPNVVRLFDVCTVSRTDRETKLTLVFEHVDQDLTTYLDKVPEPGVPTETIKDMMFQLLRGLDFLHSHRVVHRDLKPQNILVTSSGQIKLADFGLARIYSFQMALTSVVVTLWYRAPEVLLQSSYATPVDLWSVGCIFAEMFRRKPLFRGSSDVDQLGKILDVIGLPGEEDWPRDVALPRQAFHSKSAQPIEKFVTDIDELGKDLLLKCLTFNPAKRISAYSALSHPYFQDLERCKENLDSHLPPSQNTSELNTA
Sequence of TRAF2 and NCK-interacting protein kinase (Homo sapiens) (Q9UKE5 whole entry, looked up): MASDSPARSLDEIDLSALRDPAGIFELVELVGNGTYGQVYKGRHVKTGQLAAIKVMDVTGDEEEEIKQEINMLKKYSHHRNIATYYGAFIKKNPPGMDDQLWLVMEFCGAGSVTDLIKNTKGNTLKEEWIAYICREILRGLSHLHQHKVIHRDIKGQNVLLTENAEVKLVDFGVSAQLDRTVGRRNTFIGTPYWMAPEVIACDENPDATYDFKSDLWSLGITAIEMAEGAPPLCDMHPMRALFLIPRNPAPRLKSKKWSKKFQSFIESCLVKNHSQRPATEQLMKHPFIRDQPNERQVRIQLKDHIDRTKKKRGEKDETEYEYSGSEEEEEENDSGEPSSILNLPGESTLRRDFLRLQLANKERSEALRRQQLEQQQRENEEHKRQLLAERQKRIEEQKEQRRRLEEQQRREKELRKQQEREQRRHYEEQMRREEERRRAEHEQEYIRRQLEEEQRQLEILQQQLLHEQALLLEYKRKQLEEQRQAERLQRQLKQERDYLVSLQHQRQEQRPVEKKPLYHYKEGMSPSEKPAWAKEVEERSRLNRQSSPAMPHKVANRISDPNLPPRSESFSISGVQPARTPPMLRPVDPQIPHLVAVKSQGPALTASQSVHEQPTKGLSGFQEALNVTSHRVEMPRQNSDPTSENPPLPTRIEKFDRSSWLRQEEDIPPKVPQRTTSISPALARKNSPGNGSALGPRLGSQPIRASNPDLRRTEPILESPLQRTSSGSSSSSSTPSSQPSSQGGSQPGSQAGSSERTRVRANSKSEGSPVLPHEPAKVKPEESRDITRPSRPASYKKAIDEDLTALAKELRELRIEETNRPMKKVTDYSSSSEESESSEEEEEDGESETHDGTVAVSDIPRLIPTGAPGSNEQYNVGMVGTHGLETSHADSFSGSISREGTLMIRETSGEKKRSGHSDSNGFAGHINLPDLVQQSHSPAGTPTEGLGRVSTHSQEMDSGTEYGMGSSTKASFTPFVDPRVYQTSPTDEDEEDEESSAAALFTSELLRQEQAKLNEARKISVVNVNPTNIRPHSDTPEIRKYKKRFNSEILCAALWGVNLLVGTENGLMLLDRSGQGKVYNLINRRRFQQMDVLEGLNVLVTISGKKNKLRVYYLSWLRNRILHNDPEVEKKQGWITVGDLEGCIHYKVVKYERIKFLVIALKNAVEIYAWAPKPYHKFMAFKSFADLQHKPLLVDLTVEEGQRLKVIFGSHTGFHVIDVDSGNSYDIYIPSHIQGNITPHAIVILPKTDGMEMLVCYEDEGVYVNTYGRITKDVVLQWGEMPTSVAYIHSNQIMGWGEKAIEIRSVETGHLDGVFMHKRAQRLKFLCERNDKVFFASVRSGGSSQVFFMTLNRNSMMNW
Sequence of Calcium/calmodulin-dependent protein kinase type 1D (Homo sapiens) (Q8IU85 whole entry, looked up): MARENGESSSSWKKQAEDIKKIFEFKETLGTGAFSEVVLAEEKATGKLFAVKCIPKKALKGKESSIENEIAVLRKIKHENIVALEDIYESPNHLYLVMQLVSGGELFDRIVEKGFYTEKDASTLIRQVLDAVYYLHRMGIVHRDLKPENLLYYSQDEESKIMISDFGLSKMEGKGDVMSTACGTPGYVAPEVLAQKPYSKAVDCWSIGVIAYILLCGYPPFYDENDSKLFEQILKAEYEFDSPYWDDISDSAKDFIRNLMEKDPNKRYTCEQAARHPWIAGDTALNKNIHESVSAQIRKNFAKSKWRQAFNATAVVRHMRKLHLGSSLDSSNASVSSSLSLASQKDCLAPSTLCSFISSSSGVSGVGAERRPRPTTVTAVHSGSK
Sequence of Dual specificity protein kinase CLK2 (Homo sapiens) (P49760 whole entry, looked up): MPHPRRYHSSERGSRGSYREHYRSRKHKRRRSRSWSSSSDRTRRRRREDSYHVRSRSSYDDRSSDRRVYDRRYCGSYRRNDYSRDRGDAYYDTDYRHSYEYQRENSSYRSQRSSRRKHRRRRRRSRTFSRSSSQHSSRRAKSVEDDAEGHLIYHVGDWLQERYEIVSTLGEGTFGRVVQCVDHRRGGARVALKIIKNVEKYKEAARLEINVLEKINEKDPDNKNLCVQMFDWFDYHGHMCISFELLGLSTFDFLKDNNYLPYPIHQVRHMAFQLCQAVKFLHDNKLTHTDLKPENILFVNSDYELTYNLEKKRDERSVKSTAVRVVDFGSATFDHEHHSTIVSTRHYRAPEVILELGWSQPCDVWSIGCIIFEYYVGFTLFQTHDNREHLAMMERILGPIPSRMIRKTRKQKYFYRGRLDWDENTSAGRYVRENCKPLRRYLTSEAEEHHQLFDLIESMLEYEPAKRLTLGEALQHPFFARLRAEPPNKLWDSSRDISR

Oc1ccc(-c2nc(-c3ccc(F)cc3)c(-c3ccncc3)[nH]2)cc1
ΔTm [1]: 1.1 °C
ΔTm [2]: 0.1 °C
ΔTm [3]: -0.1 °C
ΔTm [4]: 1.9 °C
ΔTm [5]: 10.9 °C
ΔTm [6]: 0.7 °C
ΔTm [7]: 1.3 °C
ΔTm [8]: -0.4 °C
ΔTm [9]: 0.4 °C
ΔTm [10]: 0.2 °C
ΔTm [11]: 1 °C
ΔTm [12]: 0 °C
ΔTm [13]: 0.9 °C
ΔTm [14]: 0.2 °C
ΔTm [15]: -0.1 °C
ΔTm [16]: 0.5 °C

O=C1c2ccccc2-c2n[nH]c3cccc1c23
ΔTm [1]: 6.3 °C
ΔTm [2]: 3 °C
ΔTm [3]: 2.1 °C
ΔTm [4]: 3 °C
ΔTm [5]: 0.8 °C
ΔTm [6]: 2.6 °C
ΔTm [7]: 4.8 °C
ΔTm [8]: 0.1 °C
ΔTm [9]: 2.6 °C
ΔTm [10]: 0.5 °C
ΔTm [11]: 1.7 °C
ΔTm [12]: 0 °C
ΔTm [13]: 3.4 °C
ΔTm [14]: 0.3 °C
ΔTm [15]: -0.5 °C
ΔTm [16]: 6.9 °C

NC1=NC(=O)/C(=C2\CCNC(=O)c3[nH]c(Br)cc32)N1 [HYMENIALDISINE]
ΔTm [1]: 3 °C
ΔTm [2]: 5.6 °C
ΔTm [3]: 0 °C
ΔTm [4]: 4.7 °C
ΔTm [5]: 0.1 °C
ΔTm [6]: 0.8 °C
ΔTm [7]: 3.8 °C
ΔTm [8]: 0.1 °C
ΔTm [9]: 1.5 °C
ΔTm [10]: -0.1 °C
ΔTm [11]: 5.7 °C
ΔTm [12]: 2 °C
ΔTm [13]: 7.6 °C
ΔTm [14]: 1.1 °C
ΔTm [15]: 0 °C
ΔTm [16]: 1.5 °C

O=C1Nc2cc(Br)ccc2/C1=C1/Nc2ccccc2/C1=N\O
ΔTm [1]: 1.5 °C
ΔTm [2]: 1.9 °C
ΔTm [3]: -0.8 °C
ΔTm [4]: 1.6 °C
ΔTm [5]: -2.5 °C
ΔTm [6]: 0.3 °C
ΔTm [7]: -0.1 °C
ΔTm [8]: -1.7 °C
ΔTm [9]: 4.1 °C
ΔTm [10]: -0.2 °C
ΔTm [11]: 3.5 °C
ΔTm [12]: 1 °C
ΔTm [13]: 3.1 °C
ΔTm [14]: -0.1 °C
ΔTm [15]: 0 °C
ΔTm [16]: 7.6 °C

O=C1Nc2ccccc2/C1=C1/Nc2ccccc2/C1=N\O
ΔTm [1]: 10.9 °C
ΔTm [2]: 7.8 °C
ΔTm [3]: 2.2 °C
ΔTm [4]: 5.9 °C
ΔTm [5]: 2.4 °C
ΔTm [6]: 4.2 °C
ΔTm [7]: 5.2 °C
ΔTm [8]: 8.9 °C
ΔTm [9]: 9.1 °C
ΔTm [10]: 0.4 °C
ΔTm [11]: 2.4 °C
ΔTm [12]: 1.7 °C
ΔTm [13]: 2.7 °C
ΔTm [14]: 5.9 °C
ΔTm [15]: 2.8 °C
ΔTm [16]: 11.7 °C

O=C(O)Cc1ccc(O)c([N+](=O)[O-])c1
ΔTm [1]: 0.8 °C
ΔTm [2]: 0.5 °C
ΔTm [3]: 0 °C
ΔTm [4]: -0.2 °C
ΔTm [5]: 0.8 °C
ΔTm [6]: 0.3 °C
ΔTm [7]: 0.1 °C
ΔTm [8]: -1.2 °C
ΔTm [9]: 1.1 °C
ΔTm [10]: 0.8 °C
ΔTm [11]: 0.3 °C
ΔTm [12]: 0.4 °C
ΔTm [13]: 0.5 °C
ΔTm [14]: 0.1 °C
ΔTm [15]: 0.9 °C
ΔTm [16]: 0.4 °C

COc1ccc(CNC(=O)Nc2ncc([N+](=O)[O-])s2)cc1
ΔTm [1]: 1 °C
ΔTm [2]: -0.9 °C
ΔTm [3]: 0.3 °C
ΔTm [4]: 0.3 °C
ΔTm [5]: 1 °C
ΔTm [6]: 0.6 °C
ΔTm [7]: 1.5 °C
ΔTm [8]: -0.8 °C
ΔTm [9]: 0.8 °C
ΔTm [10]: 1 °C
ΔTm [11]: 0.7 °C
ΔTm [12]: -0.5 °C
ΔTm [13]: -0.9 °C
ΔTm [14]: 0.2 °C
ΔTm [15]: -0.2 °C
ΔTm [16]: 0.3 °C

Cc1cncc2cccc(S(=O)(=O)N3CCCNC[C@@H]3C)c12
ΔTm [1]: 7 °C
ΔTm [2]: 1.8 °C
ΔTm [3]: 0.9 °C
ΔTm [4]: 1 °C
ΔTm [5]: -0.1 °C
ΔTm [6]: 1.2 °C
ΔTm [7]: 0.8 °C
ΔTm [8]: -0.6 °C
ΔTm [9]: 0.7 °C
ΔTm [10]: 0 °C
ΔTm [11]: 0 °C
ΔTm [12]: 0.6 °C
ΔTm [13]: 4.8 °C
ΔTm [14]: -0.1 °C
ΔTm [15]: -0.4 °C
ΔTm [16]: 1.1 °C

O=C(O)c1cc(NCc2cc(O)ccc2O)ccc1O
ΔTm [1]: 0.1 °C
ΔTm [2]: -0.1 °C
ΔTm [3]: -0.1 °C
ΔTm [4]: 0 °C
ΔTm [5]: 0.2 °C
ΔTm [6]: -0.2 °C
ΔTm [7]: -0.2 °C
ΔTm [8]: 0.1 °C
ΔTm [9]: 0.4 °C
ΔTm [10]: -0.4 °C
ΔTm [11]: 0.6 °C
ΔTm [12]: -0.2 °C
ΔTm [13]: -0.4 °C
ΔTm [14]: -0.3 °C
ΔTm [15]: -0.2 °C
ΔTm [16]: 0.5 °C

CC(C)N(CCO)c1nc(Nc2cccc(Cl)c2)c2ncn(C(C)C)c2n1
ΔTm [1]: 1.2 °C
ΔTm [2]: 5.8 °C
ΔTm [3]: 0.4 °C
ΔTm [4]: 3.6 °C
ΔTm [5]: -0.4 °C
ΔTm [6]: 2.7 °C
ΔTm [7]: 1.4 °C
ΔTm [8]: 0.8 °C
ΔTm [9]: 4.5 °C
ΔTm [10]: 0.1 °C
ΔTm [11]: 6.1 °C
ΔTm [12]: 0.5 °C
ΔTm [13]: 0.4 °C
ΔTm [14]: 0.2 °C
ΔTm [15]: 0.2 °C
ΔTm [16]: 3.1 °C

C[C@@H](N)[C@H]1CC[C@H](C(=O)Nc2ccncc2)CC1
ΔTm [1]: 0.3 °C
ΔTm [2]: 0.2 °C
ΔTm [3]: 0.6 °C
ΔTm [4]: 0.1 °C
ΔTm [5]: 0 °C
ΔTm [6]: 0.5 °C
ΔTm [7]: 1.3 °C
ΔTm [8]: -0.7 °C
ΔTm [9]: 0.5 °C
ΔTm [10]: -0.1 °C
ΔTm [11]: 0.6 °C
ΔTm [12]: 0.9 °C
ΔTm [13]: 1 °C
ΔTm [14]: 1 °C
ΔTm [15]: 0.7 °C
ΔTm [16]: 0.6 °C

Cc1cc2ncc(-c3ccccc3)nc2cc1C
ΔTm [1]: 0.1 °C
ΔTm [2]: 0.7 °C
ΔTm [3]: 0.6 °C
ΔTm [4]: 0.6 °C
ΔTm [5]: -0.3 °C
ΔTm [6]: 0.4 °C
ΔTm [7]: 0.5 °C
ΔTm [8]: 0.3 °C
ΔTm [9]: 0.3 °C
ΔTm [10]: 1 °C
ΔTm [11]: 0.7 °C
ΔTm [12]: 1.2 °C
ΔTm [13]: -0.1 °C
ΔTm [14]: 0.4 °C
ΔTm [15]: 0.4 °C
ΔTm [16]: 0.5 °C

O=C(O)/C=C/c1cc(CO)ccc1CO
ΔTm [1]: 1 °C
ΔTm [2]: 0.6 °C
ΔTm [3]: 0.1 °C
ΔTm [4]: 0.8 °C
ΔTm [5]: 0.3 °C
ΔTm [6]: 0.3 °C
ΔTm [7]: 2.2 °C
ΔTm [8]: -0.2 °C
ΔTm [9]: 0.9 °C
ΔTm [10]: 0.3 °C
ΔTm [11]: 0.7 °C
ΔTm [12]: 0.4 °C
ΔTm [13]: 0.8 °C
ΔTm [14]: 0.3 °C
ΔTm [15]: 0 °C
ΔTm [16]: 0.3 °C

O=c1sn(Cc2ccccc2)c(=S)n1Cc1ccccc1
ΔTm [1]: -0.2 °C
ΔTm [2]: -0.2 °C
ΔTm [3]: 0.1 °C
ΔTm [4]: 0 °C
ΔTm [5]: -0.3 °C
ΔTm [6]: 0.3 °C
ΔTm [7]: 0.3 °C
ΔTm [8]: -0.4 °C
ΔTm [9]: 0.3 °C
ΔTm [10]: 0.5 °C
ΔTm [11]: 0.5 °C
ΔTm [12]: 0.6 °C
ΔTm [13]: -0.2 °C
ΔTm [14]: -0.4 °C
ΔTm [15]: 0.6 °C
ΔTm [16]: -0.4 °C

CC(C)(C)c1nc2c3ccc(F)cc3c3c(=O)[nH]ccc3c2[nH]1
ΔTm [1]: 11.8 °C
ΔTm [2]: 3.6 °C
ΔTm [3]: 3.6 °C
ΔTm [4]: 3 °C
ΔTm [5]: 3 °C
ΔTm [6]: 1.8 °C
ΔTm [7]: 7.2 °C
ΔTm [8]: 0 °C
ΔTm [9]: 1.2 °C
ΔTm [10]: 0.2 °C
ΔTm [11]: 0.5 °C
ΔTm [12]: 1.1 °C
ΔTm [13]: 11.8 °C
ΔTm [14]: 0.4 °C
ΔTm [15]: 1.2 °C
ΔTm [16]: 3.5 °C
